Results reported in ChEMBL document CHEMBL3112480, “γ-Alkylidene-γ-lactones and isobutylpyrrol-2(5H)-ones analogues to rubrolides as inhibitors of biofilm formation by gram-positive and gram-negative bacteria” (Bioorg Med Chem Lett, 2014).
≈ marks a conversion by molar mass, not a printed value.

Columns and labels:
Pseudomonas aeruginosa [1] = assay: Antibacterial activity against Pseudomonas aeruginosa ATCC 27853 assessed as inhibition of biofilm formation after 20 hrs by crystal-violet staining method; format: functional, organism-based; conditions: for IC50: ATCC 27853, 20 h
Pseudomonas aeruginosa [2] = assay: Antibacterial activity against Pseudomonas aeruginosa ATCC 27853 assessed as effect on planktonic growth at 5.5 ug/ml after 20 hrs relative to control; format: functional
Staphylococcus aureus [3] = assay: Antibacterial activity against Staphylococcus aureus ATCC 25923 assessed as effect on planktonic growth at 2.73 ug/ml after 20 hrs relative to control; format: functional
Streptococcus mutans [4] = assay: Antibacterial activity against Streptococcus mutans ATCC 25175 assessed as effect on planktonic growth at 10.9 ug/ml after 20 hrs relative to control; format: functional
Staphylococcus aureus [5] = assay: Antibacterial activity against Staphylococcus aureus ATCC 25923 assessed as effect on planktonic growth at 1.37 ug/ml after 20 hrs relative to control; format: functional
[6] = system: Staphylococcus epidermidis; assay: Antibacterial activity against Staphylococcus epidermidis ATCC 35547 assessed as effect on planktonic growth at 0.34 ug/ml after 20 hrs relative to control; format: functional
Streptococcus mutans [7] = assay: Antibacterial activity against Streptococcus mutans ATCC 25175 assessed as effect on planktonic growth at 0.34 ug/ml after 20 hrs relative to control; format: functional
[8] = system: Staphylococcus epidermidis; assay: Antibacterial activity against Staphylococcus epidermidis ATCC 35547 assessed as effect on planktonic growth at 0.68 ug/ml after 20 hrs relative to control; format: functional
Pseudomonas aeruginosa [9] = assay: Antibacterial activity against Pseudomonas aeruginosa ATCC 27853 assessed as effect on planktonic growth at 2.73 ug/ml after 20 hrs relative to control; format: functional
Staphylococcus aureus [10] = assay: Antibacterial activity against Staphylococcus aureus ATCC 25923 assessed as effect on planktonic growth at 21.9 ug/ml after 20 hrs relative to control; format: functional
Streptococcus mutans [11] = assay: Antibacterial activity against Streptococcus mutans ATCC 25175 assessed as effect on planktonic growth at 0.68 ug/ml after 20 hrs relative to control; format: functional
Staphylococcus aureus [12] = assay: Antibacterial activity against Staphylococcus aureus ATCC 25923 assessed as effect on planktonic growth at 5.5 ug/ml after 20 hrs relative to control; format: functional
[13] = system: Staphylococcus epidermidis; assay: Antibacterial activity against Staphylococcus epidermidis ATCC 35547 assessed as effect on planktonic growth at 43.8 ug/ml after 20 hrs relative to control; format: functional
[14] = system: Staphylococcus epidermidis; assay: Antibacterial activity against Staphylococcus epidermidis ATCC 35547 assessed as inhibition of biofilm formation after 20 hrs by crystal-violet staining method; format: functional, organism-based; conditions: for IC50: ATCC 35547, 20 h
Streptococcus mutans [15] = assay: Antibacterial activity against Streptococcus mutans ATCC 25175 assessed as effect on planktonic growth at 87.5 ug/ml after 20 hrs relative to control; format: functional
[16] = system: Staphylococcus epidermidis; assay: Antibacterial activity against Staphylococcus epidermidis ATCC 35547 assessed as effect on planktonic growth at 0.17 ug/ml after 20 hrs relative to control; format: functional
Pseudomonas aeruginosa [17] = assay: Antibacterial activity against Pseudomonas aeruginosa ATCC 27853 assessed as effect on planktonic growth at 87.5 ug/ml after 20 hrs relative to control; format: functional
Pseudomonas aeruginosa [18] = assay: Antibacterial activity against Pseudomonas aeruginosa ATCC 27853 assessed as effect on planktonic growth at 0.68 ug/ml after 20 hrs relative to control; format: functional
Streptococcus mutans [19] = assay: Antibacterial activity against Streptococcus mutans ATCC 25175 assessed as effect on planktonic growth at 2.73 ug/ml after 20 hrs relative to control; format: functional
Staphylococcus aureus [20] = assay: Antibacterial activity against Staphylococcus aureus ATCC 25923 assessed as effect on planktonic growth at 10.9 ug/ml after 20 hrs relative to control; format: functional
Pseudomonas aeruginosa [21] = assay: Antibacterial activity against Pseudomonas aeruginosa ATCC 27853 assessed as effect on planktonic growth at 43.8 ug/ml after 20 hrs relative to control; format: functional
Staphylococcus aureus [22] = assay: Antibacterial activity against Staphylococcus aureus ATCC 25923 assessed as effect on planktonic growth at 0.34 ug/ml after 20 hrs relative to control; format: functional
[23] = system: Staphylococcus epidermidis; assay: Antibacterial activity against Staphylococcus epidermidis ATCC 35547 assessed as effect on planktonic growth at 2.73 ug/ml after 20 hrs relative to control; format: functional
Pseudomonas aeruginosa [24] = assay: Antibacterial activity against Pseudomonas aeruginosa ATCC 27853 assessed as effect on planktonic growth at 0.34 ug/ml after 20 hrs relative to control; format: functional
Streptococcus mutans [25] = assay: Antibacterial activity against Streptococcus mutans ATCC 25175 assessed as effect on planktonic growth at 1.37 ug/ml after 20 hrs relative to control; format: functional
Pseudomonas aeruginosa [26] = assay: Antibacterial activity against Pseudomonas aeruginosa ATCC 27853 assessed as effect on planktonic growth at 0.17 ug/ml after 20 hrs relative to control; format: functional
[27] = system: Staphylococcus epidermidis; assay: Antibacterial activity against Staphylococcus epidermidis ATCC 35547 assessed as effect on planktonic growth at 1.37 ug/ml after 20 hrs relative to control; format: functional
Streptococcus mutans [28] = assay: Antibacterial activity against Streptococcus mutans ATCC 25175 assessed as effect on planktonic growth at 43.8 ug/ml after 20 hrs relative to control; format: functional
Staphylococcus aureus [29] = assay: Antibacterial activity against Staphylococcus aureus ATCC 25923 assessed as effect on planktonic growth at 43.8 ug/ml after 20 hrs relative to control; format: functional
Pseudomonas aeruginosa [30] = assay: Antibacterial activity against Pseudomonas aeruginosa ATCC 27853 assessed as effect on planktonic growth at 21.9 ug/ml after 20 hrs relative to control; format: functional
Staphylococcus aureus [31] = assay: Antibacterial activity against Staphylococcus aureus ATCC 25923 assessed as effect on planktonic growth at 0.68 ug/ml after 20 hrs relative to control; format: functional
[32] = system: Staphylococcus epidermidis; assay: Antibacterial activity against Staphylococcus epidermidis ATCC 35547 assessed as effect on planktonic growth at 10.9 ug/ml after 20 hrs relative to control; format: functional
Pseudomonas aeruginosa [33] = assay: Antibacterial activity against Pseudomonas aeruginosa ATCC 27853 assessed as effect on planktonic growth at 10.9 ug/ml after 20 hrs relative to control; format: functional
Pseudomonas aeruginosa [34] = assay: Antibacterial activity against Pseudomonas aeruginosa ATCC 27853 assessed as effect on planktonic growth at 1.37 ug/ml after 20 hrs relative to control; format: functional
[35] = system: Staphylococcus epidermidis; assay: Antibacterial activity against Staphylococcus epidermidis ATCC 35547 assessed as effect on planktonic growth at 5.5 ug/ml after 20 hrs relative to control; format: functional
Staphylococcus aureus [36] = assay: Antibacterial activity against Staphylococcus aureus ATCC 25923 assessed as effect on planktonic growth at 87.5 ug/ml after 20 hrs relative to control; format: functional
Streptococcus mutans [37] = assay: Antibacterial activity against Streptococcus mutans ATCC 25175 assessed as effect on planktonic growth at 21.9 ug/ml after 20 hrs relative to control; format: functional
[38] = system: Staphylococcus epidermidis; assay: Antibacterial activity against Staphylococcus epidermidis ATCC 35547 assessed as effect on planktonic growth at 21.9 ug/ml after 20 hrs relative to control; format: functional
Streptococcus mutans [39] = assay: Antibacterial activity against Streptococcus mutans ATCC 25175 assessed as effect on planktonic growth at 0.17 ug/ml after 20 hrs relative to control; format: functional
Streptococcus mutans [40] = assay: Antibacterial activity against Streptococcus mutans ATCC 25175 assessed as effect on planktonic growth at 5.5 ug/ml after 20 hrs relative to control; format: functional
[41] = system: Staphylococcus epidermidis; assay: Antibacterial activity against Staphylococcus epidermidis ATCC 35547 assessed as effect on planktonic growth at 87.5 ug/ml after 20 hrs relative to control; format: functional
Staphylococcus aureus [42] = assay: Antibacterial activity against Staphylococcus aureus ATCC 25923 assessed as effect on planktonic growth at 0.17 ug/ml after 20 hrs relative to control; format: functional

## COc1ccc(Cl)cc1C1=C(Br)C(=O)N(CC(C)C)/C1=C\c1ccccc1Br
Pseudomonas aeruginosa [1]
  inhibition: Dose-dependent effect
  IC50: 0.7 µg/mL (≈ 1.33 µM)
Pseudomonas aeruginosa [2]
  Activity: -5.5%
Staphylococcus aureus [3]
  Activity: 2.7%
Streptococcus mutans [4]
  Activity: -3.3%
Staphylococcus aureus [5]
  Activity: 12.4%
[6]
  Activity: -0.2%
Streptococcus mutans [7]
  Activity: 10.4%
[8]
  Activity: -5.2%
Pseudomonas aeruginosa [9]
  Activity: -3.1%
Staphylococcus aureus [10]
  Activity: 7.5%
Streptococcus mutans [11]
  Activity: 11%
Staphylococcus aureus [12]
  Activity: 2.5%
[13]
  Activity: 13.5%
[14]
  inhibition: Dose-dependent effect
  IC50: > 87.5 µg/mL
Streptococcus mutans [15]
  Activity: 23.4%
[16]
  Activity: -2.5%
Pseudomonas aeruginosa [17]
  Activity: 10%
Pseudomonas aeruginosa [18]
  Activity: -0.1%
Streptococcus mutans [19]
  Activity: 9.6%
Staphylococcus aureus [20]
  Activity: -1.2%
Pseudomonas aeruginosa [21]
  Activity: -6.6%
Staphylococcus aureus [22]
  Activity: 17.2%
[23]
  Activity: -6%
Pseudomonas aeruginosa [24]
  Activity: -4%
Streptococcus mutans [25]
  Activity: 8.5%
Pseudomonas aeruginosa [26]
  Activity: -2.5%
[27]
  Activity: -3.8%
Streptococcus mutans [28]
  Activity: 7.4%
Staphylococcus aureus [29]
  Activity: 23.6%
Pseudomonas aeruginosa [30]
  Activity: -9.6%
Staphylococcus aureus [31]
  Activity: 12.2%
[32]
  Activity: -3.2%
Pseudomonas aeruginosa [33]
  Activity: -11.5%
Pseudomonas aeruginosa [34]
  Activity: 0.4%
[35]
  Activity: -5.7%
Staphylococcus aureus [36]
  Activity: 48%
Streptococcus mutans [37]
  Activity: 10.4%
[38]
  Activity: 2.1%
Streptococcus mutans [39]
  Activity: 12.4%
Streptococcus mutans [40]
  Activity: -1.6%
[41]
  Activity: 6.9%
Staphylococcus aureus [42]
  Activity: 11.2%

## COc1cccc(/C=C2\OC(=O)C(Br)=C2c2cc(Cl)ccc2OC)c1
Pseudomonas aeruginosa [1]
  inhibition: Dose-dependent effect
  IC50: 1.7 µg/mL (≈ 4.03 µM)
Pseudomonas aeruginosa [2]
  Activity: -19.4%
Staphylococcus aureus [3]
  Activity: 39.5%
Streptococcus mutans [4]
  Activity: 18.8%
Staphylococcus aureus [5]
  Activity: 52.1%
[6]
  Activity: 0.1%
Streptococcus mutans [7]
  Activity: 25.7%
[8]
  Activity: -1.5%
Pseudomonas aeruginosa [9]
  Activity: -16%
Staphylococcus aureus [10]
  Activity: 47.2%
Streptococcus mutans [11]
  Activity: 23.9%
Staphylococcus aureus [12]
  Activity: 34.4%
[13]
  Activity: 5.6%
[14]
  inhibition: Dose-dependent effect
  IC50: > 87.5 µg/mL
Streptococcus mutans [15]
  Activity: 49%
[16]
  Activity: 3.7%
Pseudomonas aeruginosa [17]
  Activity: -9.5%
Pseudomonas aeruginosa [18]
  Activity: 0.7%
Streptococcus mutans [19]
  Activity: 37.3%
Staphylococcus aureus [20]
  Activity: 43.1%
Pseudomonas aeruginosa [21]
  Activity: -8.7%
Staphylococcus aureus [22]
  Activity: 30.5%
[23]
  Activity: -2.4%
Pseudomonas aeruginosa [24]
  Activity: 0.5%
Streptococcus mutans [25]
  Activity: 34.3%
Pseudomonas aeruginosa [26]
  Activity: -1.2%
[27]
  Activity: -4.7%
Streptococcus mutans [28]
  Activity: 22.7%
Staphylococcus aureus [29]
  Activity: 80.5%
Pseudomonas aeruginosa [30]
  Activity: -11.6%
Staphylococcus aureus [31]
  Activity: 47.2%
[32]
  Activity: -5.5%
Pseudomonas aeruginosa [33]
  Activity: -14.8%
Pseudomonas aeruginosa [34]
  Activity: -7.3%
[35]
  Activity: -4.6%
Staphylococcus aureus [36]
  Activity: 134.6%
Streptococcus mutans [37]
  Activity: 14%
[38]
  Activity: -1.3%
Streptococcus mutans [39]
  Activity: 26.9%
Streptococcus mutans [40]
  Activity: 19.7%
[41]
  Activity: 10.6%
Staphylococcus aureus [42]
  Activity: 10.3%
